According to the NIST ThermoML archive (doi:10.1016/j.jct.2018.12.001):
Values joined by “and” are separate entries in the source; they are usually repeats but may differ in a detail not shown here. Equal entries are not always repeated.

Tests used:
[1] = Crystal; for vapor or sublimation pressure: Calculated from knudsen effusion weight loss; for Normal melting temperature: DTA
[2] = Molar enthalpy of transition or fusion; details: Crystal; DSC

c1ccc(-c2cnc(-c3ccccc3)o2)cc1 [2,5-diphenyloxazole]
[1]
Details | vapor or sublimation pressure
328.18 K | 7.2e-05 kPa
329.28 K | 8.2e-05 kPa and 8.1e-05 kPa
330.3 K | 9.2e-05 kPa and 9.4e-05 kPa
331.19 K | 0.000103 kPa and 0.000104 kPa
332.29 K | 0.000118 kPa and 0.000116 kPa
333.29 K | 0.000133 kPa and 0.000135 kPa
334.19 K | 0.000149 kPa and 0.000148 kPa
335.17 K | 0.000167 kPa and 0.000166 kPa
336.2 K | 0.000189 kPa and 0.000188 kPa
337.18 K | 0.000209 kPa and 0.000212 kPa and 0.000215 kPa
338.17 K | 0.000241 kPa and 0.000237 kPa and 0.000238 kPa
339.29 K | 0.00027 kPa and 0.000269 kPa and 0.000268 kPa
340.25 K | 0.000301 kPa and 0.0003 kPa
341.3 K | 0.00034 kPa and 0.000343 kPa and 0.000342 kPa
342.3 K | 0.000385 kPa and 0.000382 kPa and 0.000384 kPa

Details | Molar enthalpy of transition or fusion [kcal/mol] | Normal melting temperature [°C]
[1] | – | 71.08
[2] | 5.48 | –

O=C1OC(=O)C(c2ccccc2)=C1c1ccccc1 [diphenylmaleic anhydride]
[1]
Details | vapor or sublimation pressure
361.07 K | 0.000112 kPa and 0.000113 kPa and 0.000111 kPa
363.19 K | 0.00014 kPa and 0.000138 kPa
365.3 K | 0.000178 kPa and 0.000175 kPa and 0.000177 kPa
367.1 K | 0.000213 kPa and 0.000215 kPa
369.26 K | 0.000266 kPa and 0.000265 kPa
371.29 K | 0.000335 kPa and 0.000332 kPa and 0.000331 kPa
373.08 K | 0.000392 kPa and 0.000393 kPa and 0.000399 kPa
375.28 K | 0.000492 kPa and 0.000483 kPa and 0.000494 kPa
377.3 K | 0.00061 kPa and 0.0006 kPa and 0.00059 kPa
379.19 K | 0.000733 kPa and 0.000729 kPa and 0.00074 kPa
381.16 K | 0.000894 kPa and 0.000891 kPa and 0.000881 kPa
383.2 K | 0.001108 kPa and 0.001106 kPa and 0.00109 kPa

Details | Molar enthalpy of transition or fusion [kcal/mol] | Normal melting temperature [°C]
[1] | – | 157.52
[2] | 6.52 | –

O=C1C=C(c2ccccc2)C(=O)O1 [phenylmaleic anhydride]
[1]
Details | vapor or sublimation pressure
319.14 K | 0.000102 kPa and 0.0001 kPa
321.22 K | 0.000125 kPa and 0.000126 kPa and 0.00013 kPa
323.2 K | 0.000161 kPa and 0.000164 kPa and 0.000165 kPa
325.15 K | 0.000202 kPa and 0.0002 kPa and 0.000205 kPa
327.17 K | 0.000252 kPa and 0.00025 kPa and 0.000255 kPa
329.3 K | 0.000323 kPa and 0.000321 kPa and 0.000325 kPa
331.18 K | 0.000398 kPa and 0.0004 kPa and 0.000394 kPa
333.2 K | 0.0005 kPa and 0.000496 kPa
335.36 K | 0.000633 kPa and 0.000631 kPa and 0.000637 kPa
337.13 K | 0.000764 kPa and 0.000748 kPa and 0.000772 kPa
339.23 K | 0.000919 kPa and 0.000934 kPa and 0.000926 kPa
341.31 K | 0.001191 kPa and 0.001182 kPa and 0.001186 kPa

Details | Molar enthalpy of transition or fusion [kcal/mol] | Normal melting temperature [°C]
[1] | – | 120.20
[2] | 6.2 | –
